Each block holds one molecule with its values, some of them ahead of it.
What was measured:
rats [1] = experiment: Cutaneous anesthetic activity, cutaneous trunci muscle reflex (CTMR) pin-prick model; assay type: in vivo, rat
Procedure: Rats were subjected to several days of acclimatization to the environment and the investigator prior to entering the study. About 24 hours before each experiment, the skin on the back of male rats was shaved using electronic clippers. The anesthetic action of test agents, following subcutaneous injection was determined using a “pin-prick” method as described by Khan (Khan et al., Anesthesiology, January 2002, 96(1): 109-116). Injection volumes were standardized at 100 μL, each injection caused a small wheal to develop—the boundary of which was marked with ink. The cutaneous trunci muscle reflex (CTMR) is a reflex movement of the skin due to twitches of the lateral thoracospinal muscles elicited by noxious stimulation of the dorsal cutaneous area. An 18-guage needle was used as the noxious stimulus; six stimuli were presented to an area of ‘normal’ skin to determine baseline sensitivity and this was then repeated in the area of the wheal. […] Data were represented as % maximal possible effect (MPE) where 100% indicates complete lack of response to each of the six needle presentations in the injected area. The extent of local anesthesia was assessed at regular intervals in order to generate efficacy-duration time plots.

rats [2] = experiment: Sciatic function assay (foot print score, motor function); assay type: in vivo, rat; conditions: 200 μL of 0.2% with 2% lidocaine
Source text: The sciatic function test is a simple observational gait analysis that provides a rudimentary assessment of hind-limb motor function according to a predetermined scoring scale based on a visual inspection of the animals foot prints as it ambulates on a flat surface (the basic principles of this test are provided in Lowdon (Journal of Neuroscience Methods 24(3), 1988, 279-281)). Following the injection of a test substance(s), the animal's hind paws are inked and it is then placed on a flat paper surface and permitted to ambulate freely. The footprint pattern left by the inked footpads on the paper is inspected and assigned a ‘foot print score’ based on a subjective assessment. […] A footprint score of 1-3 reflected that the weight bearing was primarily on the knees, that the ankle and toes were used sparingly, the toes were curled, and or the plantar surface of the paw is uplifted in a concave fashion. A footprint score of 4-6 reflects that the weight bearing is primarily on the knees and angle, with very little weight bearing on the toes. A footprint score of 6-10 reflects that the weight bearing is distributed over the knee, ankle, and toes and that there is an occasional sparing of the knee joints.

[3] = test system: Male Sprague Dawley (SD) rats; experiment: In vivo assay of mechanical nociception (rat pinch model, perisciatic injection); conditions: perisciatic
[4] = test system: sodium channel in hTRPV1-N1E115 cells; experiment: FLIPR membrane potential assay of sodium channel response in hTRPV1-N1E115 cells, with (47° C.) or without (25° C.) heat activation of hTRPV1; assay type: cell-based
In short: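 hTRPV1-N1E115 cells were loaded with membrane potential blue dye, and compound was added. Duplicate plates were either heated to 47 °C for 10 min then held 30 min at ~25 °C, or kept 40 min at room temperature. Activity was attenuation of the FLIPR Tetra signal induced by 100 μM veratridine (final).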

[5] = test system: sodium current in DRG neurons; conditions: co-applied with 1 μM capsaicin; whole-cell voltage clamp; read-out: in vitro apparent affinity (IC50) for blocking sodium current in DRG neurons; cited from earlier work

SMILES: CCN(CC)CC(=O)Nc1c(C)cccc1C [lidocaine]
time of return of analgesia to baseline (rats [1]; 100 μL lidocaine (2%) alone, sub-cutaneous): around 2 hours | analgesia (% maximal possible effect) reached (rats [1]; 100 μL lidocaine (2%) alone, sub-cutaneous, for around 0.5 hours post injection): 100%

duration of marked motor deficit post injection (rats [2]; unilateral peri-sciatic injection): 2 h | time of gradual return of foot print score to normal (rats [2]; remaining hours of assessment after the first 6 hours): ~20 h | IC50 ([4]; 47° C., class symbols, read-out: hTRPV1-N1E IC50 (μM) 47° C.): 1 to 10 µM
SMILES: Cc1ccccc1N(CC[C@H]1CCCC[N+]1(C)C)C1Cc2ccccc2C1.[Br-] [Example 43, (R)-2-[2-(Indan-2-yl-o-tolyl-amino)-ethyl]-1,1-dimethyl-piperidinium bromide]
Average Time of Analgesia ([3]; test compound 0.2%, lidocaine 2%, total injection 200 μL): 28 h | duration of analgesia, combination with lidocaine compared to compound alone (rats [1]; 100 μL sub-cutaneous injection, 0.2%, with lidocaine 2% vs alone): extended duration of analgesia | hTRPV1-N1E Nav 0.1 mM (% inhibition) 25° C. ([4]; 0.1 mM, 25° C. (no heat activation of hTRPV1)): 93.9%

SMILES: CC[N+](CC)(CC)CC(=O)Nc1c(C)cccc1C [QX-314, reference compound]
IC50 [5]: 30 µM | Average Time of Analgesia ([3]; test compound 0.5%, lidocaine 0%, total injection 100 μL): 2 h | Average Time of Analgesia ([3]; test compound 0.5%, lidocaine 0%, total injection 200 μL): 2 h | Average Time of Analgesia ([3]; test compound 0.5%, lidocaine 2%, total injection 100 μL): 6 h | Average Time of Analgesia ([3]; test compound 0.5%, lidocaine 2%, total injection 200 μL): 9 h

Reference: patent US8865741B2, “Aminoindane compounds and use thereof in treating pain” (Asana Biosciences, LLC, priority 2011, dated 2014)
